Read-outs that look alike come from different tables or passages of the source.
How the values were obtained:
Assay in all cases: biochemical
Set-up in all cases: Reaction Biology 371-kinase panel at Km ATP, per cent enzyme activity relative to DMSO, single dose in duplicate
[1] = target: HPK1/MAP4K1 (Homo sapiens, UniProt Q92918); conditions: duplicate measurements, Km ATP
How it was run: (§1)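 Compound screened at 300 nM in vitro across a 371-kinase panel. Enzyme activity expressed as % of DMSO controls. IC50 values came from sigmoidal variable-slope dose-response fits with the bottom fixed at 0.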

[2] = target: IRR/INSRR (Homo sapiens, UniProt P14616); conditions: duplicate measurements, Km ATP
How it was run: as §1

[3] = target: PKG2/PRKG2 (Homo sapiens, UniProt Q13237); conditions: duplicate measurements, Km ATP; read-out: % Enzyme Activity (relative to DMSO controls) / TP-0005801 (0.3µM) / Data 1
How it was run: as §1

[4] = target: T1, TRKC (Homo sapiens, UniProt Q16288); conditions: duplicate measurements, Km ATP
T1 construct: gene NTRK3
How it was run: as §1

[5] = target: TTBK1 (Homo sapiens, UniProt Q5TCY1); conditions: duplicate measurements, Km ATP
How it was run: as §1

[6] = target: CAMK2b (Homo sapiens, UniProt Q13554); conditions: duplicate measurements, Km ATP
How it was run: as §1

[7] = target: PIM2 (Homo sapiens, UniProt Q9P1W9); conditions: duplicate measurements, Km ATP
How it was run: as §1

[8] = target: GSK3b (Homo sapiens, UniProt P49841); conditions: duplicate measurements, Km ATP
How it was run: as §1

[9] = target: TTBK2 (Homo sapiens, UniProt Q6IQ55); conditions: duplicate measurements, Km ATP
How it was run: as §1

[10] = target: T2, PKAcg (Homo sapiens, UniProt P22612); conditions: duplicate measurements, Km ATP
T2 construct: gene PRKACG
How it was run: as §1

[11] = target: T3, MKK7 (Homo sapiens, UniProt O14733); conditions: duplicate measurements, Km ATP
T3 construct: gene MAP2K7
How it was run: as §1

[12] = target: EPHA1 (Homo sapiens, UniProt P21709); conditions: duplicate measurements, Km ATP
How it was run: as §1

[13] = target: CLK2 (Homo sapiens, UniProt P49760); conditions: duplicate measurements, Km ATP
How it was run: as §1

[14] = target: TEC (Homo sapiens, UniProt P42680); conditions: duplicate measurements, Km ATP
How it was run: as §1

[15] = target: GRK7 (Homo sapiens, UniProt Q8WTQ7); conditions: duplicate measurements, Km ATP
How it was run: as §1

[16] = target: CDK4/cyclin D3 (Homo sapiens, UniProt P11802); conditions: duplicate measurements, Km ATP
How it was run: as §1

[17] = target: T4, FMS (Homo sapiens, UniProt P07333); conditions: duplicate measurements, Km ATP
T4 construct: gene CSF1R
How it was run: as §1

[18] = target: ABL2/ARG (Homo sapiens, UniProt P42684); conditions: duplicate measurements, Km ATP
How it was run: as §1

[19] = target: GRK5 (Homo sapiens, UniProt P34947); conditions: duplicate measurements, Km ATP
How it was run: as §1

[20] = target: RIPK2 (Homo sapiens, UniProt O43353); conditions: duplicate measurements, Km ATP
How it was run: as §1

[21] = read-out: % Enzyme Activity (relative to DMSO controls) / TP-0005801 (0.3µM) / Data 1
[22] = read-out: % Enzyme Activity (relative to DMSO controls) / TP-0005801 (0.3µM) / Data 2

CDK4/cyclin D3, sequence (P11802 whole entry): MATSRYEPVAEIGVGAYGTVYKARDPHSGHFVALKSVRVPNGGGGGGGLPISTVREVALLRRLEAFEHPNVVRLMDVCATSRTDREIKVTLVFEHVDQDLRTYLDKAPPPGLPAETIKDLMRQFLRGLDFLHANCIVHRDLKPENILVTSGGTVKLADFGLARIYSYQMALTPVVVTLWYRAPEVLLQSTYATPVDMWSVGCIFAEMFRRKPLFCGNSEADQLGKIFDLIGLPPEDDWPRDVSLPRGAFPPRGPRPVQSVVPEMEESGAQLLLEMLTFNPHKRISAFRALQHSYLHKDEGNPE
CDK4/cyclin D3, sequence (P30281 whole entry partner): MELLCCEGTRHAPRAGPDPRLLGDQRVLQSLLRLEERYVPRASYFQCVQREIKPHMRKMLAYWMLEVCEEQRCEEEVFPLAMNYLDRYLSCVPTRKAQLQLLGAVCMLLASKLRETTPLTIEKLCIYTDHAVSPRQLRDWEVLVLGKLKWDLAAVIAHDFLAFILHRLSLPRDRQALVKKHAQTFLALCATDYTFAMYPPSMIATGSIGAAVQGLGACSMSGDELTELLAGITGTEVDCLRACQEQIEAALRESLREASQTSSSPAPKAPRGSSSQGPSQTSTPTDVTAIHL
CAMK2b, sequence (Q13554 whole entry): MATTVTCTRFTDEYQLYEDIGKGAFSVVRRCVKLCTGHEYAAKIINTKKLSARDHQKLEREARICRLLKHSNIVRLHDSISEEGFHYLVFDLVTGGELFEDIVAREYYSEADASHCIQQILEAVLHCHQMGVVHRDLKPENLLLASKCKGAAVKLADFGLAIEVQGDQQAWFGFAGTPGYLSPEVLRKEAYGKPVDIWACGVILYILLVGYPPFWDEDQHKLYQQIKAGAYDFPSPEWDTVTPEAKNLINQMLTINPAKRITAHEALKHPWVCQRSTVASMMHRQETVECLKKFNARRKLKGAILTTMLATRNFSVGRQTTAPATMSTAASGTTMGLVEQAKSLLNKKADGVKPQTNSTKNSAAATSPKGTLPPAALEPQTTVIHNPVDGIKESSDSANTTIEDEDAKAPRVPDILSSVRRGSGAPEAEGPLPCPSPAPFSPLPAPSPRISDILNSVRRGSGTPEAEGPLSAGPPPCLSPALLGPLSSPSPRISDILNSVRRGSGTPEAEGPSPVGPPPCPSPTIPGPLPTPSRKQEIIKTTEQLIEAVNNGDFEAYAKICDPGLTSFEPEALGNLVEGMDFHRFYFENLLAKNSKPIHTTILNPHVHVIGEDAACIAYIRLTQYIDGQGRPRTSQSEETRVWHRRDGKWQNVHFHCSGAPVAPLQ
EPHA1, sequence (P21709 whole entry): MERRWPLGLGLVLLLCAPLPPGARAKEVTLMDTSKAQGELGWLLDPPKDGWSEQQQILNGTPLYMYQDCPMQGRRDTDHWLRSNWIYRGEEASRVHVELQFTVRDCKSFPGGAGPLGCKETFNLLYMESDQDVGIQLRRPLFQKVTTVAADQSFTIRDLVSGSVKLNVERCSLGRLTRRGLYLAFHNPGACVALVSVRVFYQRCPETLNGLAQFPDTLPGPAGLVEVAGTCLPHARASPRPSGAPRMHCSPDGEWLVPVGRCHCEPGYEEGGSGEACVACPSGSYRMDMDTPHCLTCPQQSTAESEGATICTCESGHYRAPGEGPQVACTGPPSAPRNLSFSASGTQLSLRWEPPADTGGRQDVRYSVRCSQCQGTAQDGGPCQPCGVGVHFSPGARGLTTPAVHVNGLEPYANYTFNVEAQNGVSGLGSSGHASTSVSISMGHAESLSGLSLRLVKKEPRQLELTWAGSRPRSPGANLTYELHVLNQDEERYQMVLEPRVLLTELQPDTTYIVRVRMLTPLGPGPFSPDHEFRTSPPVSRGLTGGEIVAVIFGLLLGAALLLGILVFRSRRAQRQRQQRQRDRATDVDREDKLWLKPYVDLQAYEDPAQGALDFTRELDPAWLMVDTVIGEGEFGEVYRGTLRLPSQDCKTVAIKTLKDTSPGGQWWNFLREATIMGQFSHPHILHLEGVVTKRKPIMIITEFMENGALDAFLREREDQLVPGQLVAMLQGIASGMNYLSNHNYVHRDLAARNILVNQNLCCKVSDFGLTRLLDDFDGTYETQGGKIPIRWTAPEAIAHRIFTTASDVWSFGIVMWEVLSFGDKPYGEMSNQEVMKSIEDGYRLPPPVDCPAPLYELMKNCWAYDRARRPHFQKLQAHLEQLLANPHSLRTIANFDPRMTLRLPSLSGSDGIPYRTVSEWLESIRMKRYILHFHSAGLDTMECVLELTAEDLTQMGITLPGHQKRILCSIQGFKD
T3 sequence (O14733 whole entry): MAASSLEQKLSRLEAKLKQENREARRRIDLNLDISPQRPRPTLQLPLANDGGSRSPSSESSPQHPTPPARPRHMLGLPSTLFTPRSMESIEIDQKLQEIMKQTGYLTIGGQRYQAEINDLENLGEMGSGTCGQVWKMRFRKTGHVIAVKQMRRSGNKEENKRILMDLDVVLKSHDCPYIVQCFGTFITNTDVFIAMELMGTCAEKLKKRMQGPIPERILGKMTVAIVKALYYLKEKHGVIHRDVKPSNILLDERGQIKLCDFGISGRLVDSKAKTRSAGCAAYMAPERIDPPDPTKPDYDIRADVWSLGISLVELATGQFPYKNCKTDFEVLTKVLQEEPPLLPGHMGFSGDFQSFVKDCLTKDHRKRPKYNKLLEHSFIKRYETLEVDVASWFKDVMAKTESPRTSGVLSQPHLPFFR
PIM2, sequence (Q9P1W9 whole entry): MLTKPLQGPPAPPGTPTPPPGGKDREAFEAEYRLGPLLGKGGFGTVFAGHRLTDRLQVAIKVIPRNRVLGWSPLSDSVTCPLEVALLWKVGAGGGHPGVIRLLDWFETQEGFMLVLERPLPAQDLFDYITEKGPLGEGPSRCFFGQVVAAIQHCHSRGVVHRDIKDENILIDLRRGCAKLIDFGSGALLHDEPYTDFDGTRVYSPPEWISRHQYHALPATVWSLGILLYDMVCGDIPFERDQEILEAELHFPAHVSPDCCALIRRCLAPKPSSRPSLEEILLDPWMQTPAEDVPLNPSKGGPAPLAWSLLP
GRK5, sequence (P34947 whole entry): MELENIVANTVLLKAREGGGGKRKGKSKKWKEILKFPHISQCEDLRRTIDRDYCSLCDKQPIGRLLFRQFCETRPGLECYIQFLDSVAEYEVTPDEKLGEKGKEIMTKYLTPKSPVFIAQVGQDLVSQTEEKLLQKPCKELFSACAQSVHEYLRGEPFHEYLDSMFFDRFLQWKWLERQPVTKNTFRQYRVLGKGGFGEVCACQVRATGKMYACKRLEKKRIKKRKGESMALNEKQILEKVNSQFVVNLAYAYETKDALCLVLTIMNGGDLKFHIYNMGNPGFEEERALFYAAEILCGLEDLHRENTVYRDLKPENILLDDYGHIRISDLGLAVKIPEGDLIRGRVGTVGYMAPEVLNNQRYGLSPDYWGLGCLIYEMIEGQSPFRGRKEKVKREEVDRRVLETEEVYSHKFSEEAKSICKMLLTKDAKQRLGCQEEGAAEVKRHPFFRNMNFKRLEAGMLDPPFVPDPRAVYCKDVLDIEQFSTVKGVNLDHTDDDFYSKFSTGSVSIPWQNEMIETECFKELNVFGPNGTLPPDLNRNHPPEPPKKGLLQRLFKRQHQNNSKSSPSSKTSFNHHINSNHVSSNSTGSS
TTBK2, sequence (Q6IQ55 whole entry): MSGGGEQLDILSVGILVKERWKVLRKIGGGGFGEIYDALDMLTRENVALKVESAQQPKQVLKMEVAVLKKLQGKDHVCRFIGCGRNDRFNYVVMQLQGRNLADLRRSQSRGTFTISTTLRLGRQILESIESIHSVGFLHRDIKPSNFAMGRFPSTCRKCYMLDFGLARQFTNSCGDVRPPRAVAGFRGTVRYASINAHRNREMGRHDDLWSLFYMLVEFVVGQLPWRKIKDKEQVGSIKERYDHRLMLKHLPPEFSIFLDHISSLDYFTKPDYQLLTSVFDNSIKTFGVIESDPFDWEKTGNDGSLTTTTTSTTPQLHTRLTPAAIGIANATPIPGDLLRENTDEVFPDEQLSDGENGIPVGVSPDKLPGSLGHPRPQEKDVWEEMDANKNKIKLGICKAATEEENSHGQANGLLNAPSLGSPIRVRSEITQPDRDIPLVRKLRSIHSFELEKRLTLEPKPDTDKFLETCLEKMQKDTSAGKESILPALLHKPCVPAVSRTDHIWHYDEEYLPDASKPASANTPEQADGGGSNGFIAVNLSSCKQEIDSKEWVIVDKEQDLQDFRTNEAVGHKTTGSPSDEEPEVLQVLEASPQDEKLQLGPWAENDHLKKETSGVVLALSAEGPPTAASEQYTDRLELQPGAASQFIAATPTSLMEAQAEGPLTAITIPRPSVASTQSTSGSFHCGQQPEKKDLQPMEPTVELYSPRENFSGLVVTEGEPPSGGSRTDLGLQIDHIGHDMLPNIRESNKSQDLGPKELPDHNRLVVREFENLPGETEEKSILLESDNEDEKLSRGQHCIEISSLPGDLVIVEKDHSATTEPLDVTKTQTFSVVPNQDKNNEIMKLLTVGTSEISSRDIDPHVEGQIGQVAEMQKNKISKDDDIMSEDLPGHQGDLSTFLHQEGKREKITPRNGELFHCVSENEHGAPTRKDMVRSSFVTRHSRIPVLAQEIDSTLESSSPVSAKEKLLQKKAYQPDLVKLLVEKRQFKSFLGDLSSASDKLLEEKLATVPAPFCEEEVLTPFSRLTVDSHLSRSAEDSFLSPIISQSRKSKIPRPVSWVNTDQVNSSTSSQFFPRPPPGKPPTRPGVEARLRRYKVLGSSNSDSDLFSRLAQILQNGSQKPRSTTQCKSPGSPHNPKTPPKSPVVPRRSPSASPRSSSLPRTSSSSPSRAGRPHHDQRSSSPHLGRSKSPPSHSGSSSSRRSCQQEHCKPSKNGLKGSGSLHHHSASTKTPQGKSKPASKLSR

- remaining activity at 0.3 µM [1, 21]: 25.8%
- remaining activity at 0.3 µM [1, 22]: 25.6%
- remaining activity at 0.3 µM [2, 21]: 66.7%
- remaining activity at 0.3 µM [2, 22]: 65.2%
- remaining activity at 0.3 µM [3]: 111%
- remaining activity at 0.3 µM [4, 21]: 109%
- remaining activity at 0.3 µM [4, 22]: 104%
- remaining activity at 0.3 µM [5, 21]: 97.2%
- remaining activity at 0.3 µM [5, 22]: 94%
- remaining activity at 0.3 µM [6, 21]: 64.8%
- remaining activity at 0.3 µM [6, 22]: 64%
- remaining activity at 0.3 µM [7, 21]: 116%
- remaining activity at 0.3 µM [7, 22]: 110%
- remaining activity at 0.3 µM [8, 21]: 96.4%
- remaining activity at 0.3 µM [8, 22]: 95.7%
- remaining activity at 0.3 µM [9, 21]: 90.3%
- remaining activity at 0.3 µM [9, 22]: 83.1%
- remaining activity at 0.3 µM [10, 21]: 95.5%
- remaining activity at 0.3 µM [10, 22]: 92.1%
- remaining activity at 0.3 µM [11, 21]: 103%
- remaining activity at 0.3 µM [11, 22]: 102%
- remaining activity at 0.3 µM [12, 21]: 96.8%
- remaining activity at 0.3 µM [12, 22]: 96.5%
- remaining activity at 0.3 µM [13, 21]: 69.8%
- remaining activity at 0.3 µM [13, 22]: 68.6%
- remaining activity at 0.3 µM [14, 21]: 93.4%
- remaining activity at 0.3 µM [14, 22]: 92.2%
- remaining activity at 0.3 µM [15, 21]: 105%
- remaining activity at 0.3 µM [15, 22]: 97.5%
- remaining activity at 0.3 µM [16, 21]: 91.7%
- remaining activity at 0.3 µM [16, 22]: 90.8%
- remaining activity at 0.3 µM [17, 21]: 56.3%
- remaining activity at 0.3 µM [17, 22]: 55.6%
- remaining activity at 0.3 µM [18, 21]: 93.2%
- remaining activity at 0.3 µM [18, 22]: 91.6%
- remaining activity at 0.3 µM [19, 21]: 92%
- remaining activity at 0.3 µM [19, 22]: 89.8%
- remaining activity at 0.3 µM [20, 21]: 95.8%
- remaining activity at 0.3 µM [20, 22]: 93.9%
Compound: COc1cc(N2CCN(C)CC2)c(C)cc1Nc1ncc(Br)c(Nc2cccnc2N(C)C)n1 [TP-5801]

From article PMC8429728, “TNK1 is a ubiquitin-binding and 14-3-3-regulated kinase that can be targeted to block tumor growth” (Nature Communications, 2021)
